Experimental data taken from US10342766B2, “6-shogaol derivatives and activities thereof” (North Carolina Agricultural and Technical State University, priority 2017, dated 2019).
Several values for one entry are separate records, joined by “and”; a condition that tells them apart may be missing. Equal values may be shown once.

What was measured:
[1] = tested on: Nrf2; assay: Nrf2 reporter activity by Tg(gstp1:GFP) fluorescence in transgenic zebrafish embryos; assay type: in vivo; details: 5 μM, 24-hour treatment from 1 dpf to 2 dpf; olfactory epithelia; relative to vehicle (DMSO = 1.00)
Method: Zebrafish AB transgenic strains Tg(gstp1:GFP) were maintained in a Pentair Aquatic Ecosystem (Apopka, Fla., United States of America) fish housing unit with 14 h light/10 h dark cycle (see Tsujita, T., Li, L., Nakajima, H., Iwamoto, N., Nakajima-Takagi, Y., Ohashi, K., Kawakami, K., Kumagai, Y., Freeman, B. A., Yamamoto, M., and Kobayashi, M. (2011) “Nitro-fatty acids and cyclopentenone prostaglandins share strategies to activate the Keap1-Nrf2 system: a study using green fluorescent protein transgenic zebrafish.” Genes Cells 16, 46-57). The fish embryos were maintained at 28.5° C. in 0.3× Danieau's solution (19.3 mM NaCl, 0.23 mM KCl, 0.13 mM MgSO4, 0.2 mM Ca(NO3)2, 1.7 mM HEPES, pH 7.0) containing 30 μg/ml phenylthiourea (PTU) to inhibit pigmentation. Tg(gstp1:GFP) cross with AB wild-type strain fluorescence embryos were used for the experiment. Zebrafish embryos were washed, dechorionated and anaesthetized before observations, and fluorescence imaging for analysis.
Transgenic zebrafish embryos at 1 day-post-fertilization (dpf) were dechorionated and placed in Petri dishes containing different chemicals diluted in 0.3× Danieau's solution containing PTU. The chemical stock was dissolved in DMSO at 5 mM concentration.
An Olympus MVX10 Fluorescence Macroscope (Olympus, Center Valley, Pa., United States of America) equipped with a Hamamatsu C9300-221 high-speed digital CCD camera (Hamamatsu City, Japan) was used for fluorescence microscopy. Tg(gstp1:GFP) fluorescent embryos were anaesthetized in tricaine and imaged at 2 dpf. MetaMorph Basic software (Olympus, Center Valley, Pa., United States of America) was used for image acquisition and analysis.
Quantification of Nrf2 Reporter Activity by Tg(gstp1:
GFP) Fluoresence in Zebrafish Model. The fluorescence intensity of the olfactory neural epithelia was quantitated using MetaMorph Basic software. In brief, GFP expression in the olfactory regions of Tg(gstp1:GFP) embryos treated with various chemicals was measured after 24-hour treatment from 1 dpf to 2 dpf. The GFP induction was detectable by fluorescence signal at the area of the olfactory epithelia in the anterior of the head region, the intensity was measured using an area of a circle of 60 pixel diameter of the fluorescence olfactory epithelia subtracted by a background non-fluorescence area next to the zebrafish embryo. Both the left and right olfactory epithelia were measured to give an average fluorescence value. The values are an average of measurements from at least 10 embryos.

[2] = tested on: human colon cancer cells HCT-116; assay: MTT growth inhibition, HCT-116; assay type: cell-based; details: 24 hours
Method: (§1) Cell viability was determined by an MTT colorimetric assay. Briefly, human colon cancer cells HCT-116 or HT-29, were plated in 96-well microtiter plates with 3000 cells/well and allowed to attach for 24 hours at 37° C. and 5% CO2. The test compounds (in DMSO) were added to cell culture medium to desired final concentrations (final DMSO concentrations for control and treatments were 0.1%). After the cells were cultured for 24 hours, the medium was aspirated and cells were treated with 200 μL fresh medium containing 2.41 mmol/L MTT. After incubation for 3 hours at 37° C., the medium containing MTT was aspirated, 100 μL of DMSO was added to solubilize the formazan precipitate, and the plates were shaken gently for an hour at room temperature. Absorbance values were derived from the plate reading at 550 nm on a Biotek (Winooski, Vt., United States of America) microtiter plate reader. The reading reflected the number of viable cells and was expressed as a percentage of viable cells in the control. CCD-18Co cells were grown in EMEM. Both HCT-116 and HT-29 cells were cultured in McCoy's 5A medium. All of the above media were supplemented with 10% fetal bovine serum, 1% penicillin/streptomycin, and 1% glutamine, and the cells were kept in a 37° C. incubator with 95% humidity and 5% CO2.

[3] = tested on: human colon cancer cells HT-29; assay: MTT growth inhibition, HT-29; assay type: cell-based; details: 24 hours
Method: as §1

[4] = Biotransformation in zebrafish embryos (cysteine conjugates, LC/MS); assay type: in vivo; details: 5 μM in incubation medium, 8 hpf to 24 hpf
Method: Fifty zebrafish embryos at the 8 hour-post-fertilization (hpf) stage were incubated at 28.5° C. in 0.3× Danieau's solution (19.3 mM NaCl, 0.23 mM KCl, 0.13 mM MgSO4, 0.2 mM Ca(NO3)2, 1.7 mM HEPES, pH 7.0) with or without 5 μM 18 and 25-27, respectively. At 24 hpf, embryos were dechorionated manually and the chorions were carefully removed one by one from the culture medium. The zebrafish embryos were harvested and kept at −80° C. till analyzed by LC/MS.
200 μL Sodium acetate buffer solution (pH 5.0) was added to 50 zebrafish embryos. Samples were homogenized for 90 s by an Omni Bead Ruptor Homogenizer (Kennesaw, Ga., United States of America). 10 μL 10% ascorbic acid and 300 μL sodium acetate buffer were added to the homogenates. The mixture was incubated in the presence of β-glucuronidase (250 U) and sulfatase (3 U) at 37° C. for 45 min, and then 600 μL MeOH with 1% acetic acid was added. The resulting mixture was vortexed for 30 s and then centrifuged at 17000 g for 10 min. The supernatant was removed and evaporated under a gentle stream of nitrogen. The residue was reconstituted in 150 μL 90% MeOH with 0.2% acetic acid (AA), and 10 μL was analyzed directly by LC/MS.
LC/MS analysis was carried out with a Thermo-Finnigan Spectra System, which consisted of an Accela high speed MS pump, an Accela refrigerated autosampler, and an LCQ Fleet ion trap mass detector (Thermo Electron, San Jose, Calif., United States of America) incorporated with an electrospray ionization (ESI) interface. A Gemini-NX C18 column (150 mm×4.6 mm i.d., 5 μm; Phenomenex, Torrance, Calif., United States of America) was used for separation at a flow rate of 0.3 mL/min. The column was eluted with 100% A (5% aqueous methanol with 0.2% formic acid) for 1 min, followed by linear increases in B (95% aqueous methanol with 0.2% formic acid) to 55% from 1 to 4 min, to 85% from 4 to 25 min, then to 100% B from 25 to 30 min, and then with 100% B from 30 to 35 min. The column was then re-equilibrated with 100% A for 5 min. The LC eluent was introduced into the ESI interface. The positive ion polarity mode was set for the ESI source with the voltage on the ESI interface maintained at approximately 4.6 kV. Nitrogen gas was used as the sheath gas and auxiliary gas. Optimized source parameters, including capillary temperature (260° C.), sheath gas flow rate (31 arbitrary units), auxiliary gas flow rate (16 units), tube lens (34 V), and capillary voltage 9 V, were tuned using authentic samples. The collision-induced dissociation (CID) was conducted with an isolation width 2 Da and normalized collision energy of 35 for MS^2. The mass range was measured from 100 to 800 m/z. Data acquisition was performed with Xcalibur version 2.0 (Thermo Electron, San Jose, Calif., United States of America).

IC50 [2]: 5.42 µM | IC50 [3]: 11.5 µM
SMILES: CCCCC/C=C/C(=O)/C=C/c1ccc(O)c(O)c1 [Compound 26]
Ratio/CTL, Tg(gstp1:GFP) fluorescence signal [1]: 6.96 and 6.96 ± 0.48 | Cysteine conjugates found in zebrafish embryos [4]: Three conjugates 37, 37b, and 38 were detected
